Among the data in US20250163057A1, “DCN-1 MODULATING COMPOUNDS AND METHODS OF USE THEREOF” (Cellarity, Inc., priority 2023, published 2025) are IC50 values, retold here.

Assay [1] deals with Cullin-3 (CUL3) neddylation. Description: AlphaLISA assay for Cullin-3 (CUL3) neddylation in TF 1 cells. Type of assay: cell-based. To be noted: Homo sapiens, TF-1, 3 h, 3 hours treatment. The method, boiled down:
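Neddylated CUL3 was quantified by AlphaLISA in lysates of TF 1 cells exposed for 3 h to test compound in IMDM without supplements. Percent inhibition set between vehicle and 1 μM DI-1548 positive control; IC50 derived by Hill-equation fitting of dose-response curves.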

Assay [2] deals with DCN1 (DCUND1) protein PONY domain (Homo sapiens (Human), UniProt Q96GG9). Description: TR-FRET assay, DCN1 binding with FAM-labeled probe. The method, boiled down:
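First, the E. coli-derived PONY domain was biotinylated and paired with streptavidin Tb cryptate. Compounds in 0.1% DMSO were then added to DCN1 and FAM-probe (5 nM/20 nM, or 0.31 nM/900 nM total with 800 nM unlabelled) in TritonX, 200 mM NaCl buffer. Finally, TR-FRET ratios were recorded at 1, 5 and 24 hrs.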

The mark [3] stands for this setting: 24 hr after treatment with compound, read-out: TR FRET IC50 24 hr.
Setting [4] is: TR FRET IC50 1 hr (nM), 1 hr after treatment with compound.
The mark [5] stands for this setting: read-out: TR FRET IC50 1 hr, 1 hr after treatment with compound.

Read-outs that look alike come from different tables or passages of the source.

DCN1 (DCUND1) protein PONY domain, sequence (Q96GG9 60-248): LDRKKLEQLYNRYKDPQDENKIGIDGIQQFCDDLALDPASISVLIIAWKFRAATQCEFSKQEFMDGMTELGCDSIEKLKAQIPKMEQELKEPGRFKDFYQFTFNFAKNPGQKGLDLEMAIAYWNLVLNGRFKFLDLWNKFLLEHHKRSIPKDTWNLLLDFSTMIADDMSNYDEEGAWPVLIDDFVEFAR

The IC50 is the concentration that gives 50% inhibition. Regarding `CCN1C(=O)[C@@H](NC(=O)c2cccc(C(F)(F)F)c2)[C@@H](c2ccc(F)nc2)c2c(C(=O)N3CCC[C@H]3C#N)nn(C3CC3)c21` (mixture of isomers) [Compound I-585], the results for the 50% inhibitory concentration (IC50) in assay [1], in assay [2] (setting [3]) and in assay [2] (setting [4]) were 100 to 1000 nM, not above 200 nM and 1000 to 3000 nM, respectively.
In the case of `C=C(CN1CC2CC(C1)O2)C(=O)NCc1nn(-c2ccccc2)c2c1[C@H](c1ccc(F)cc1)[C@H](NC(=O)c1cccc(C(F)(F)F)c1)C(=O)N2CC` [Compound I-56], the half-inhibitory concentration (IC50) is not above 100 nM in assay [1], not above 200 nM in assay [2] (setting [3]) and not above 200 nM in assay [2] (setting [5]).
Turning to `CCN1C(=O)[C@H](NC(=O)c2cccc(C(F)(F)F)c2)[C@@H](c2ccc(F)cc2)c2c(C3(NC#N)CC3)nn(-c3ccccc3)c21` (racemic) [Compound I-84], the IC50 in assay [1] was more than 1000 nM; in assay [2] (setting [3]) it was 1000 to 3000 nM; in assay [2] (setting [4]) it was 1000 to 3000 nM.
With `CN1C(=O)[C@@H](NC(=O)c2cccc(C(F)(F)F)c2)[C@@H](C2CC2)c2c(C(=O)N3[C@H](C#N)C[C@H]4C[C@H]43)nn(C3CCOCC3)c21` (relative stereo) [Compound I-650, N-((4S*,5S*)-3-((1R,3S,5R)-3-cyano-2-azabicyclo[3.1.0]hexane-2-carbonyl)-4-cyclopropyl-7-methyl-6-oxo-1-(tetrahydro-2H-pyran-4-yl)-4,5,6,7-tetrahydro-1H-pyrazolo[3,4-b]pyridin-5-yl)-3-(trifluoromethyl)benzamide], the concentration for half-maximal inhibition (IC50) was not above 100 nM in assay [1], not above 200 nM in assay [2] (setting [3]) and not above 200 nM in assay [2] (setting [4]).
With `CCN1C(=O)[C@@H](NC(=O)c2cccc(C(F)(F)F)c2)[C@@H](c2ccc(F)cc2)c2c([C@@H](C)N(C#N)CCCN(C)C)nn(-c3ccccc3)c21` [Compound I-578, N-((4S,5S)-3-((R)-1-(N-(3-(dimethylamino)propyl)cyanamido)ethyl)-7-ethyl-4-(4-fluorophenyl)-6-oxo-1-phenyl-4,5,6,7-tetrahydro-1H-pyrazolo[3,4-b]pyridin-5-yl)-3-(trifluoromethyl)benzamide], the values for the half-maximal inhibitory concentration (IC50) in assay [1], in assay [2] (setting [3]) and in assay [2] (setting [4]) were 100 to 1000 nM, 1000 to 3000 nM and 1000 to 3000 nM, respectively.
For `CCN1C(=O)[C@H](NC(=O)c2cccc(C(F)(F)F)c2)[C@H](C2CC2)c2c(C(=O)N(C)C(C)C#N)nn(C3CCOCC3)c21` (mixture of isomers) [Compound I-415], the half-maximal inhibitory concentration (IC50) was more than 1000 nM in assay [1], 1000 to 3000 nM in assay [2] (setting [3]) and 1000 to 3000 nM in assay [2] (setting [4]).
In the case of `CCN1C(=O)[C@@H](NC(=O)c2cccc(C(F)(F)F)c2)[C@@H](c2ccc(F)cc2)c2c(C(=O)N3CC[C@H](F)[C@H]3C#N)nn(C3CCOCC3)c21` [Compound I-694, N-((4S,5S)-3-((2R,3S)-2-cyano-3-fluoropyrrolidine-1-carbonyl)-7-ethyl-4-(4-fluorophenyl)-6-oxo-1-(tetrahydro-2H-pyran-4-yl)-4,5,6,7-tetrahydro-1H-pyrazolo[3,4-b]pyridin-5-yl)-3-(trifluoromethyl)benzamide], the values for the IC50 in assay [1], in assay [2] (setting [3]) and in assay [2] (setting [5]) were not above 100 nM, not above 200 nM and not above 200 nM, respectively.
In the case of `CCN1C(=O)[C@@H](NC(=O)CCc2ccccc2)[C@@H](C2CC2)c2c(C(=O)N3[C@H](C#N)C[C@H]4C[C@H]43)nn(C3CCOCC3)c21` [Compound I-476], the IC50 in assay [1] is more than 1000 nM; in assay [2] (setting [3]) it was 1000 to 3000 nM; in assay [2] (setting [4]), 1000 to 3000 nM.
Regarding `CCN1C(=O)[C@H](NC(=O)c2cccc(C(F)(F)F)c2)[C@H](c2ccc(F)cc2)c2c(C(=O)N3CCC[C@H]3C#N)nn(-c3cccc(OCCCN4CCOCC4)c3)c21` [Compound I-544], the results for the IC50 in assay [1], in assay [2] (setting [3]) and in assay [2] (setting [4]) were more than 1000 nM, 1000 to 3000 nM and 1000 to 3000 nM, respectively.
Regarding `CCN1C(=O)[C@@H](NC(=O)c2cccc(C(F)(F)F)c2)[C@@H](C2CC2)c2c(C(=O)N(C)[C@H](C#N)CCN(C)C3COC3)nn(C3CCOCC3)c21` [Compound I-429], the IC50 in assay [1] is not above 100 nM; in assay [2] (setting [3]), not above 200 nM; in assay [2] (setting [5]) it was not above 200 nM.
As for `CCN1C(=O)[C@H](NC(=O)c2cccc(C(F)(F)F)c2)[C@@H](c2ccc(F)cc2)c2c(C3(N(C)C#N)CC3)nn(-c3ccccc3)c21` (racemic) [Compound I-76], the IC50 was more than 1000 nM in assay [1], 1000 to 3000 nM in assay [2] (setting [3]) and 1000 to 3000 nM in assay [2] (setting [4]).
As for `CCN1C(=O)[C@@H](NC(=O)c2cccc(C(F)(F)F)c2)[C@@H](c2ccc(F)cc2)c2c(CN(C)C/C=C/C(=O)N3CCCC3)nn(-c3ccccc3)c21` [Compound I-606], the concentration for half-maximal inhibition (IC50) in assay [1] was more than 1000 nM; in assay [2] (setting [3]), 200 to 1000 nM; in assay [2] (setting [4]), 200 to 1000 nM.
For the compound `C=C(CN1CCC1)C(=O)NCc1nn(-c2ccccc2)c2c1[C@@H](C1CC1)[C@@H](NC(=O)c1cccc(C(F)(F)F)c1)C(=O)N2CC` (stereo in doubt) [Compound I-636], the concentration for half-maximal inhibition (IC50) in assay [1] was more than 1000 nM; in assay [2] (setting [3]), 1000 to 3000 nM; in assay [2] (setting [4]), 1000 to 3000 nM.
As to `CCN1C(=O)[C@H](NC(=O)c2cccc(C(F)(F)F)c2)[C@H](c2ccc(F)cc2)c2c(C(=O)N3CC[C@H]3C#N)nn(-c3ccccc3)c21` [Compound I-535], the IC50 in assay [1] is more than 1000 nM; in assay [2] (setting [3]) it was 1000 to 3000 nM; in assay [2] (setting [4]), 1000 to 3000 nM.
In the case of `CCN1C(=O)[C@H](NC(=O)c2cccc(C(F)(F)F)c2)[C@H](c2ccc(F)cc2)c2c(C(=O)N(CC#N)C3CC3)nn(C3CCOCC3)c21` [Compound I-414], the IC50 was more than 1000 nM in assay [1], 1000 to 3000 nM in assay [2] (setting [3]) and 1000 to 3000 nM in assay [2] (setting [4]).
On to `CCN1C(=O)[C@H](NC(=O)c2cccc(C(F)(F)F)c2)[C@H](C2CC2)c2c(C(=O)N3CCC[C@H]3C#N)nn(C3CCOCC3)c21` [Compound I-666], for which the IC50 in assay [1] was more than 1000 nM; in assay [2] (setting [3]) it was 1000 to 3000 nM; in assay [2] (setting [4]), 1000 to 3000 nM.
For `CCN1C(=O)[C@@H](NC(=O)c2cccc(C(F)(F)F)c2)[C@@H](c2ccc(F)cc2)c2c(COCC#N)nn(-c3ccccc3)c21` [Compound I-685], the IC50 in assay [1] is 100 to 1000 nM; in assay [2] (setting [3]), not above 200 nM; in assay [2] (setting [5]), not above 200 nM.
Take `CCN1C(=O)[C@H](NC(=O)c2cccc(C(F)(F)F)c2)[C@H](c2ccc(F)cc2)c2c(C(=O)N3CCC[C@H]3C#N)nn(-c3ccccc3)c21` [Compound I-611]: the IC50 in assay [1] was more than 1000 nM; in assay [2] (setting [3]) it was 1000 to 3000 nM; in assay [2] (setting [4]) it was 1000 to 3000 nM.
Consider `CCN1C(=O)[C@@H](NC(=O)c2cccc(C(F)(F)F)c2)[C@@H](c2ccc(F)cc2)c2c(CN(C#N)CCN(C)C)nn(-c3ccccc3)c21` (racemic) [Compound I-486], for which the IC50 is not above 100 nM in assay [1], not above 200 nM in assay [2] (setting [3]) and 200 to 1000 nM in assay [2] (setting [4]).
On the same counts, the results for `CCN1C(=O)[C@H](NC(=O)c2cccc(C(F)(F)F)c2)[C@H](c2ccc(F)cc2)c2c(C(=O)N(CC#N)C3CC3)nn(-c3ccccc3)c21` (stereo in doubt) [Compound I-674] are more than 1000 nM, 1000 to 3000 nM and 1000 to 3000 nM.
`CCN1C(=O)[C@H](NC(=O)c2cccc(C(F)(F)F)c2)[C@H](c2ccc(F)cc2)c2c(C(=O)N3CCC[C@H]3C#N)nn(-c3cccc(OCCN(C)C4COC4)c3)c21` [Compound I-584]: the IC50 in assay [1] was more than 1000 nM; in assay [2] (setting [3]) it was 1000 to 3000 nM; in assay [2] (setting [4]), 1000 to 3000 nM.
As for `CCN1C(=O)[C@H](NC(=O)c2cccc(C(F)(F)F)c2)[C@H](c2ccc(F)cc2)c2c(C(=O)N3CCC[C@H]3C#N)nn(-c3cccc(OCCCN4CCN(C5COC5)CC4)c3)c21` [Compound I-681], the IC50 is more than 1000 nM in assay [1], 1000 to 3000 nM in assay [2] (setting [3]) and 1000 to 3000 nM in assay [2] (setting [4]).
For `CCN1C(=O)[C@H](NC(=O)c2cccc(C(F)(F)F)c2)[C@H](c2ccc(F)cc2)c2c(C(=O)N3CCC[C@H]3C#N)nn(C3CC3)c21` [Compound I-558], the IC50 in assay [1] is more than 1000 nM; in assay [2] (setting [3]), 1000 to 3000 nM; in assay [2] (setting [4]) it was 1000 to 3000 nM.
For `CCN1C(=O)[C@@H](NC(=O)c2cccc(C(F)(F)F)c2)[C@@H](C2CC2)c2c(C(=O)N3CS(=O)(=O)C[C@H]3C#N)nn(-c3ccccc3)c21` [Compound I-519], the IC50 in assay [1] is not above 100 nM; in assay [2] (setting [3]), not above 200 nM; in assay [2] (setting [5]), not above 200 nM.
Regarding `CCN1C(=O)[C@@H](NC(=O)c2cccc(C(F)(F)F)c2)[C@@H](c2ccc(F)cc2)c2c([C@H](CCCO)NC#N)nn(-c3ccccc3)c21` [Compound I-489], the results for the IC50 in assay [1], in assay [2] (setting [3]) and in assay [2] (setting [4]) were not above 100 nM, not above 200 nM and 200 to 1000 nM, respectively.
On the same counts, the results for `CCN1C(=O)[C@@H](NC(=O)c2cccc(C(F)(F)F)c2)[C@@H](c2ccc(F)cc2)c2c(CN(C)CC#N)nn(-c3ccccc3)c21` [Compound I-417] are 100 to 1000 nM, 200 to 1000 nM and 1000 to 3000 nM.
On the same counts, the results for `CCN1C(=O)[C@@H](NC(=O)c2cccc(C(F)(F)F)c2)[C@H](c2ccc(F)cc2)c2c(CN(C)C(=O)CC#N)nn(-c3ccccc3)c21` [Compound I-403] are 100 to 1000 nM, 200 to 1000 nM and 200 to 1000 nM.
On the same counts, the results for `CCN1C(=O)[C@@H](NC(=O)c2cccc3c2CCCO3)[C@@H](C2CC2)c2c(C(=O)N3[C@H](C#N)C[C@H]4C[C@H]43)nn(C3CCOCC3)c21` [Compound I-633] are 100 to 1000 nM, 200 to 1000 nM and 1000 to 3000 nM.
